Tests used:
A3AR [1] = target: T1, A3AR (Mus musculus, UniProt Q61618); test: Immunostaining and confocal microscopy of A3AR localization in B16-F10 melanoma cells; type: cell-based
T1 construct: endogenous in cells; host or cells: B16-F10 melanoma cells
T1 sequence (Q61618 1-319): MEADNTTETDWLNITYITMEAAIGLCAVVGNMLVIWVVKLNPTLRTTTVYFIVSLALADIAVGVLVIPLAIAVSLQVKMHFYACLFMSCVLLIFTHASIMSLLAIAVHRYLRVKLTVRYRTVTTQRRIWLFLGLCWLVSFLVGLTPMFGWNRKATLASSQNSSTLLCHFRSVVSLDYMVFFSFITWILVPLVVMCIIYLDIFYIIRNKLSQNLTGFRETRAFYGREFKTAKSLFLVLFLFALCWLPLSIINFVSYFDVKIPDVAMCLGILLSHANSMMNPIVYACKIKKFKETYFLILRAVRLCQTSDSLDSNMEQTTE
Procedure: B16-F10 melanoma cells were grown for 24 hours on cover slips coated with Ploy-L-Lysine (500 μg/ml). Cells were fixed in 4% formaldehyde in phosphate-buffered saline (PBS) for 1 hour at room temperature. The fixed cells were rinsed three times for one min with PBS. To block nonspecific interaction of the antibodies, cells were incubated for 30 minutes in 4% normal goat serum (NGS) in PBS (1% bovine serum albumin (BSA), 0.1% Triton X-100). For the single labeling experiments, cells were then incubated with the primary antibodies against A3AR at a dilution of 1:1000 in PBS (1% BSA, 1% NGS, 0.1% Triton X-100) for 24 hours at 4° C. For the double labeling experiments, antibodies against the A2B adenosine receptor (A2BR) were added at a dilution of 1:1000 to the reaction mixture. After being washed three times for 3 minutes with PBS, cells were incubated with Cy3-conjugated anti-goat IgG for the single labeling experiment, and with both, Fluorescein-conjugated anti-rabbit IgG and Cy3 for the double labeling. Both antibodies were diluted to 1:250 in PBS and incubated in the dark for 2 hours. Cells were rinsed with PBS three more times and mounted with AM 100 (Chemicon, Ca). Stained cells were visualized by Confocal Microscope (Zeiss, Axiovert 100 M, excitation at 553 and emission at 560-615 nm for Cy3, and 492 and 520 nm, respectively, for Fluorescein).
To study receptor localization, confocal laser microscopy was utilized.
To further explore the time course kinetic of A3AR internalization, B16-F10 melanoma cells were exposed for different time periods to IB-MECA and confocal microscopy analysis was carried out. FIG. 2 depicts the gradual internalization rate that occurred within a few minutes, resulting in the disappearance of the fluorescence after 6 minutes. […] This was followed by internalization/externalization after longer incubation time periods (30 and 60 minutes). To confirm the observation that the fluorescence level is decreased as a result of internalization, optical sectioning of the cells was performed (data not shown). […] To show the specificity of A3AR localization, it was compared to that of the A2B adenosine receptor. […] Upon exposure of the cells to IB-MECA, the A2BR was masked by A3AR in the cytoplasm.

A3AR [2] = test: RT-PCR detection of A3AR on human neutrophils; type: cell-based; settings: incubated for 15 minutes at 37° C.
Procedure: Tissue sections (5 μm thick) on slides that, stained by H&E were observed by a pathologist. The neoplastic area and the normal area were detected and each one marked separately. The neoplastic tissue and the normal tissue were collected to different microcentrifuge tubes. The samples were treated with proteinase K at a final concentration of 0.1 mg/ml and incubated at 37° C. for 1 hour to allow for […]. Cells lysate were heated to 95° C. for 15 minutes in order to inactivate DNase and proteinase K. Following centrifugation at 14,000 RPM for 5 minutes, 17 μl of the supernatant was transferred to separate tube and 4 μl of RT mixture. 5 mM dNTPs, 2.5 μM random hexamer, 5 U RNasin, 100 U SuperScript One Step RT-PCR with Platinum Taq (Invitrogene) were added.
The RT reaction was performed at 45° C. for 45 minutes. […]
10×10^6 neutrophil cells isolated from 20 ml of human blood were incubated for 15 minutes with […] of CF101 at 37° C. […] RNA level was quantified using spectrophotometer and […] from each sample were subjected to RT-PCR using SuperScript One Step RT-PCR with Platinum Taq (Invitrogene), as described above in section E., by using the set No II as primers for amplification of 361 bp fragment. RT-PCR products were detected by electrophoresis and the size was verified by comparing with known RNA. […]

CNC(=O)[C@H]1O[C@@H](n2cnc3c(NCc4cccc(I)c4)ncnc32)[C@H](O)[C@@H]1O [IB-MECA, 1-deoxy-1-[6[[(3-iodophenyl)methyl]amino]-9H-purine-9-yl]-N-methyl-β-D-ribofura-nuronaminde]
time to disappearance of the A3AR fluorescence (internalization) (A3AR [1]; B16-F10 melanoma cells exposed to IB-MECA): 6 min
A3AR fluorescence level on the cell surface (A3AR [1]; B16-F10 melanoma cells, IB-MECA treated, after 5 minutes): marked decrease
A3AR localization, optical sectioning (A3AR [1]; B16-F10 melanoma cells, after 15 and 60 minutes' exposure): seen both in the cytoplasm and on the cell surface
A3AR localization, optical sectioning (A3AR [1]; B16-F10 melanoma cells, exposure for 5 minutes): presented in the cytoplasm
A3AR localization (A3AR [1]; B16-F10 melanoma cells, prolonged exposure (15 minutes)): receptor externalization to the cell surface
expression of A3AR (RT-PCR) (A3AR [2]): increase
